This passage reports Kd and inhibition results from PMC7614683, “A small molecule PI3Kα activator for cardioprotection and neuroregeneration” (Nature, 2023).

As usually defined, the Kd is the concentration at which binding is half-saturated. What is called inhibition is the drop in the measured response relative to a control, in per cent.

One experiment has as its target T1, full length p110α/p85α (Homo sapiens, UniProt P42336).
T1 construct: Full-length human p110α was expressed either in a complex with full-length human p85α (for HTS, biochemistry and HDX-MS); 6xHis tag followed by TEV protease site (N); host or cells: Spodoptera frugiperda Sf9, baculovirus
Description: Differential scanning fluorimetry. The experiment is classed as binding. The following applies: mean ± SD, n=3; read-out: Kd for PI3Kα by differential scanning fluorimetry. Here is the method:
Thermal denaturation was followed using intrinsic protein fluorescence measured with the NanoTemper Prometheus NT48 instrument (Nanotemper Technologies, München, Germany). Samples in HBS-P (Cytiva) supplemented with 5% (v/v) DMSO containing 3 μM full length p110α/p85α and a 1:2 dilution series of 1938 (from 440 μM to 13.8 nM) were loaded into standard capillaries and heated at 2 °C/min from 15 to 95 °C. The first derivative of the fluorescence emission ratio 350/330 nm were analyzed using the PR.ThermControl v2.3.1 (NanoTemper), to define the Tm. Independent experiments using the same protein and compound stocks were performed in triplicate. Data were fitted using Prism 9.4.1 (GraphPad Software Inc). Dissociation constants were calculated using fits to a single-site ligand depletion model: (2) T=T0+(T1−T0){([CT]+[PT]+[KD])−([CT]+[PT]+KD)^2−4[CT][PT]}/2[PT] where T0 and T1 are the Tm in the absence of titrating compound and at saturation respectively, [PT] and [CT] are the total concentrations of protein and compound respectively and KD is the dissociation constant.
(DSF heats the sample and reads unfolding from a dye or from intrinsic fluorescence.)

A further experiment deals with CAMK1 (CaMK1) (Homo sapiens, UniProt Q14012). Description: SelectScreen Adapta. The experiment is classed as biochemical. Particulars: 1000 nM, [ATP] 10 μM. Here is the method:
(§1) 133 protein kinases and 7 lipid kinases were counterscreened, with 1938 used at 1 μM, using the Adapta, Lantha and Z-LYTE assays (SelectScreen Kinase Profiling Service; Thermofisher – experimental details of these assays can be found here: https://www.thermofisher.com/uk/en/home/industrial/pharma-biopharma/drug-discovery-development/target-and-lead-identification-and-validation/kinasebiology/kinase-activity-assays.html. The tree represention in KinMap[59] generated courtesy of Cell Signaling Technology, Inc. (www.cellsignal.com). mTORC1 (mTOR/RAPTOR/LST8) protein complex and ATM kinase and substrates were produced as previously described[57],[60]. Screening of 1938 was conducted using SuperSep Phos-Tag 50 μmol/l 100 x 100 x 6.6 mm 17-well (192-18001/199-18011) gels. For ATM assays, 100 nM ATM was incubated for 30 min at 30°C with 5 μM GST-p53 and 1 mM ATP, in the absence or presence of 200 μM 1938 in ATM Kinase Buffer (50 mM HEPES pH 7.5, 100 mM NaCl, 10% glycerol, 2 mM […], 5 mM MgCl2). As a positive control for ATM activation, the same reaction was carried out with 100 nM ATM/5 μM GST-p53/1 mM ATP in the presence of 100 nM Mre11-Rad50-Nbs1 (MRN) complex, a known activator of ATM[61]. For mTORC1 assays, 50 nM mTORC1 complex (mTOR/LST8/RAPTOR) was incubated for 3 h at 30°C with 15 μM 4E-BP1, 10 mM MgCl2 and 250 μM ATP, in the absence or presence of 200 μM 1938. As a ‘positive’ control, a higher concentration (150 nM) of mTORC1 complex (mTOR/LST8/RAPTOR) was incubated for 3 h at 30°C with 15 μM 4E-BP1, 10 mM MgCl2 and 250 μM ATP. Kinase reactions were quenched by addition of SDS-PAGE Loading Buffer (as per manufacturer’s instructions) and freezing at -20°C before being run on the Phos-tag gels at 150 V for 90 min. Gels were then stained using InstantBlue™ Coomassie, and quantified using BioRad Image Lab Software. Kinase assays were carried out in triplicate.

A further experiment has as its target CDK7/cyclin H/MNAT1 (Homo sapiens, UniProt P50613). Description: SelectScreen Adapta. The experiment is classed as biochemical. On the procedure: as §1
For the next experiment, the target named is CDK9/cyclin T1 (Homo sapiens, UniProt P50750). Description: SelectScreen Adapta. The experiment is classed as biochemical. Here is the method:
as §1

In a further experiment the target is IRAK1 (Homo sapiens, UniProt P51617). Description: SelectScreen Adapta. It is filed as biochemical. Here is the method:
as §1

A further experiment concerns the target LRRK2 (Homo sapiens, UniProt Q5S007). The experiment is described as follows: SelectScreen Adapta. It is filed as biochemical. On the procedure:
as §1

In the next experiment the target is PIK3C2A (PI3K-C2 alpha) (Homo sapiens, UniProt O00443). The experiment is described as follows: SelectScreen Adapta. It is filed as biochemical. On the procedure:
as §1

Experiment [1] deals with PIK3CA/PIK3R1 (p110 alpha/p85 alpha) (Homo sapiens, UniProt P42336). The experiment is described as follows: SelectScreen Adapta. The experiment is classed as biochemical. On the procedure:
as §1

Each structure is given as a SMILES string. Where two headings read alike, the source gives them in different places.

Sequence of IRAK1 (P51617 whole entry): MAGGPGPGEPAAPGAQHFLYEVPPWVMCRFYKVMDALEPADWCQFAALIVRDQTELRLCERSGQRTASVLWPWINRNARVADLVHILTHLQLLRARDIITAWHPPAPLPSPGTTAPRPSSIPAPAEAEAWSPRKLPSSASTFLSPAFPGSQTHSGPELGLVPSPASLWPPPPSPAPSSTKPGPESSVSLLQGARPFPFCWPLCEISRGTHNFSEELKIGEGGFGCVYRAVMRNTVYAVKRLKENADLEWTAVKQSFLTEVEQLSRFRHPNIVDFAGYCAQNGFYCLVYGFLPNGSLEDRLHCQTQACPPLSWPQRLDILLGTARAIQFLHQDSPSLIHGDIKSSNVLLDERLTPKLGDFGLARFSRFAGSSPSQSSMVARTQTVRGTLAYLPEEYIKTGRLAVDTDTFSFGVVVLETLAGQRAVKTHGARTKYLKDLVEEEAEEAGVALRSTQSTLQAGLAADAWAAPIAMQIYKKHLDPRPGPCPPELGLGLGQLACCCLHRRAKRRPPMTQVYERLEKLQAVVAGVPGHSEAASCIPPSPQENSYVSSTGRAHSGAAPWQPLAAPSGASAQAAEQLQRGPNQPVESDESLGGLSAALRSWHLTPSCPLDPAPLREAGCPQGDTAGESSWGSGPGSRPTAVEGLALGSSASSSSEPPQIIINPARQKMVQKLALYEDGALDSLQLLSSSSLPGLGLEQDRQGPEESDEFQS
Sequence of PIK3C2A (PI3K-C2 alpha) (O00443 whole entry): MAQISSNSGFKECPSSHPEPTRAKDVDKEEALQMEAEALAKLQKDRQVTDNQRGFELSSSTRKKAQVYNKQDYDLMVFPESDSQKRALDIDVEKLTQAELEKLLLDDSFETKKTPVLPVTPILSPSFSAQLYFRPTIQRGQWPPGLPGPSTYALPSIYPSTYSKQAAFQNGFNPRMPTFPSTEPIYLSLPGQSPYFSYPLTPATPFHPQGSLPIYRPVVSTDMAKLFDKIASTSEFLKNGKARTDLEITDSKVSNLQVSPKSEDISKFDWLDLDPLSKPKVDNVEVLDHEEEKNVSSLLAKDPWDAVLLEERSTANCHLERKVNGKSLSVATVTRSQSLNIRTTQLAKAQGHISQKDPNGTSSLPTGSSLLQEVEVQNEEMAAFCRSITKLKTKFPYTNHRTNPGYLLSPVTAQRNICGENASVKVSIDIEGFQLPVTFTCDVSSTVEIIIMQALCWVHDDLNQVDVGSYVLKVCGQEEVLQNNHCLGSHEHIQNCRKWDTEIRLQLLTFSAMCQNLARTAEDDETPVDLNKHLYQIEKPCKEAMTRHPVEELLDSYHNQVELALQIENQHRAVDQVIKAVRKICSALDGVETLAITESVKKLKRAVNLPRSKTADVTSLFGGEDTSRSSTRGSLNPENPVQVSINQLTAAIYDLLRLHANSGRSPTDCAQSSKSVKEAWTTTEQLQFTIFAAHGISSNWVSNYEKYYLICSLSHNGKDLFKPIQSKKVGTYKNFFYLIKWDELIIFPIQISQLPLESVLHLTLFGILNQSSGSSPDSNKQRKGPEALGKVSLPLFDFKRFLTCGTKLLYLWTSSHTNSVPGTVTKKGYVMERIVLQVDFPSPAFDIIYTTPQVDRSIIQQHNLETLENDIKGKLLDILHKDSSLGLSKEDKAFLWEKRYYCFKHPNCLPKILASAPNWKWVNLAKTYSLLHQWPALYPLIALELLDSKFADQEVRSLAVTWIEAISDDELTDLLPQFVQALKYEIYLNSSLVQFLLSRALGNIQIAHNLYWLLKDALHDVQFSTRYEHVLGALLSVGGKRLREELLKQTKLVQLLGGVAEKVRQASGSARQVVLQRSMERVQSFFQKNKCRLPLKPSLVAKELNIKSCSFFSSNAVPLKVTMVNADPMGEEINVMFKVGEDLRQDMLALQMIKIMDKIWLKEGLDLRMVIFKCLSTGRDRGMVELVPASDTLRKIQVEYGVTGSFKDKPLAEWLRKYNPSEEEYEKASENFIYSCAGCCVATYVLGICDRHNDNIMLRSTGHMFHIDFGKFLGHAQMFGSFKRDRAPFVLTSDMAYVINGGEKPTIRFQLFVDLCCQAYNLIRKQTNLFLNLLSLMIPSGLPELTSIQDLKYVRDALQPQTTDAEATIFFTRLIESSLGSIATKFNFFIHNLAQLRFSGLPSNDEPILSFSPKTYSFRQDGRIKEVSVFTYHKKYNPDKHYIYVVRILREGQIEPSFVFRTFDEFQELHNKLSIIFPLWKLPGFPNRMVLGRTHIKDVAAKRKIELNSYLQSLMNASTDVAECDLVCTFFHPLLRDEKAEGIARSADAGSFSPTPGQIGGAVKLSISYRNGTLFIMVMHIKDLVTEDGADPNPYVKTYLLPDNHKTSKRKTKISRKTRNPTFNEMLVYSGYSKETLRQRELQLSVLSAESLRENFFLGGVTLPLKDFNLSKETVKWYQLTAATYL
Sequence of CDK7/cyclin H/MNAT1 (P50613 whole entry): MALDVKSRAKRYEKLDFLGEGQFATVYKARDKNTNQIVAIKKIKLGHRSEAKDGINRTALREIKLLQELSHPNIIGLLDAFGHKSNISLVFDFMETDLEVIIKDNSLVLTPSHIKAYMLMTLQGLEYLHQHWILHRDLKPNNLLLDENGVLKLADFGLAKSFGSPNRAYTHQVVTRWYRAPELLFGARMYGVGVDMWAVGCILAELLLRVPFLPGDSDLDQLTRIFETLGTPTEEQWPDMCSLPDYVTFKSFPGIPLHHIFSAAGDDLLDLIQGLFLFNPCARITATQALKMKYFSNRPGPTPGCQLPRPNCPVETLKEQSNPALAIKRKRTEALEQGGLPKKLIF
Sequence of CDK7/cyclin H/MNAT1 (P51946 whole entry partner): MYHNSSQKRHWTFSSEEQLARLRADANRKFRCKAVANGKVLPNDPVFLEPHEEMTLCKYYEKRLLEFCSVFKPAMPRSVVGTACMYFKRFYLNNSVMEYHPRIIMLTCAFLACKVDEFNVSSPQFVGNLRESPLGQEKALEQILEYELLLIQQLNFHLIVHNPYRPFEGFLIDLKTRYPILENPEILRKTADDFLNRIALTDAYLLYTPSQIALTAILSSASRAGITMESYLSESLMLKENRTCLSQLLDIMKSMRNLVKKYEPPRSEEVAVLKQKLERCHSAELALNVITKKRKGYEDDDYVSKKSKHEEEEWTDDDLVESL
Sequence of CDK7/cyclin H/MNAT1 (P51948 whole entry partner): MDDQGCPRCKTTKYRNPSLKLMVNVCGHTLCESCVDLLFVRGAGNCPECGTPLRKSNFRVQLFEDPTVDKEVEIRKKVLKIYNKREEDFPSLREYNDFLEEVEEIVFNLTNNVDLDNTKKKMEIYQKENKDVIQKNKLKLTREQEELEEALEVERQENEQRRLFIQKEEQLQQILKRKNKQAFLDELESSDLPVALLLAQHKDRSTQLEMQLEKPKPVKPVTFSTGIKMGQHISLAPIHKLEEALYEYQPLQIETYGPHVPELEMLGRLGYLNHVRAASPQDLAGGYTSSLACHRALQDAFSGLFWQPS
Sequence of CDK9/cyclin T1 (P50750 whole entry): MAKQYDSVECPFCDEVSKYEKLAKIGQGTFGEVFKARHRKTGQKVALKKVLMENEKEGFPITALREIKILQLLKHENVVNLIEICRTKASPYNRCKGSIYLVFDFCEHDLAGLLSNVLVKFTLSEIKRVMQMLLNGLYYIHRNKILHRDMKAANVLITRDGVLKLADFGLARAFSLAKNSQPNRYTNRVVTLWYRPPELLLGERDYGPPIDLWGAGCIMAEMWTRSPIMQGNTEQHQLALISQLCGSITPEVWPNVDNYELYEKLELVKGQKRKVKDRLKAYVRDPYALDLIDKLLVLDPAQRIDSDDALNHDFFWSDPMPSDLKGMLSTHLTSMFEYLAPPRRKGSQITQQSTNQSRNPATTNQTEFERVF
Sequence of CDK9/cyclin T1 (O60563 whole entry partner): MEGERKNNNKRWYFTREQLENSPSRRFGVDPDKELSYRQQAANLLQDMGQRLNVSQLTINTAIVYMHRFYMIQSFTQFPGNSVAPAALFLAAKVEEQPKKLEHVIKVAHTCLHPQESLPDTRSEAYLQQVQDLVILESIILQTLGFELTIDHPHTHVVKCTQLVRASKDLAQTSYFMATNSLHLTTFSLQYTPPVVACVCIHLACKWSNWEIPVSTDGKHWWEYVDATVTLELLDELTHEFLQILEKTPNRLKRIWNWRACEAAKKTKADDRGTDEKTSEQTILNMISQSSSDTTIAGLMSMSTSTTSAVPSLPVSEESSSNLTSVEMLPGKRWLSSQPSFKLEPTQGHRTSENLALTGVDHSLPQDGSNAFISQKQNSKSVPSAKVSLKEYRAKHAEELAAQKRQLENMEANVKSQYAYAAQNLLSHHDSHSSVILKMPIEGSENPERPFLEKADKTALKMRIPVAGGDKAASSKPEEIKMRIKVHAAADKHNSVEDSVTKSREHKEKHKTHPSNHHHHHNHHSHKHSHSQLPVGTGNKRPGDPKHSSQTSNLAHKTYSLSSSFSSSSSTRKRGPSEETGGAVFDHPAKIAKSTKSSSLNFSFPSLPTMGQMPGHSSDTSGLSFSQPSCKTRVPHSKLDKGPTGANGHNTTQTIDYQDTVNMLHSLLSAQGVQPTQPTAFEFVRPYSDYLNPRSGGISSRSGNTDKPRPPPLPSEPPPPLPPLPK

In the case of `CCN1CCN(c2ccc(Nc3cc(Nc4cccc5c4N(C(C)=O)CC5)ccn3)cc2)CC1` [Compound 1938], the Kd at full length p110α/p85α is 16 ± 2 µM. In addition, the inhibition at 1 µM at CAMK1 (CaMK1) (read-out: % Inhibition Point 1) is 26%; on CAMK1 (CaMK1) (read-out: % Inhibition Point 2), 23%; on CAMK1 (CaMK1) (read-out: % Inhibition mean), 25%; on CDK7/cyclin H/MNAT1 (read-out: % Inhibition Point 1), -6.51%; on CDK7/cyclin H/MNAT1 (read-out: % Inhibition Point 2) it was 4%; on CDK7/cyclin H/MNAT1 (read-out: % Inhibition mean) it was -1.27%. For the same compound, the inhibition at 1 µM at CDK9/cyclin T1 (read-out: % Inhibition Point 1) was 10%; at CDK9/cyclin T1 (read-out: % Inhibition Point 2), 2%; at CDK9/cyclin T1 (read-out: % Inhibition mean) it was 6%; at IRAK1 (read-out: % Inhibition Point 1) it was 29%; on IRAK1 (read-out: % Inhibition Point 2), 20%; on IRAK1 (read-out: % Inhibition mean), 25%. Also, the inhibition at 1 µM on LRRK2 (read-out: % Inhibition Point 1) is 13%; at LRRK2 (read-out: % Inhibition Point 2) it was 18%; at LRRK2 (read-out: % Inhibition mean) it was 16%; on PIK3C2A (PI3K-C2 alpha) (read-out: % Inhibition Point 1) it was 2%; at PIK3C2A (PI3K-C2 alpha) (read-out: % Inhibition Point 2), 3.23%; on PIK3C2A (PI3K-C2 alpha) (read-out: % Inhibition mean), 2.57%. Further, the inhibition at 1 µM in experiment [1] (read-out: % Inhibition Point 1) was -19%; in experiment [1] (read-out: % Inhibition Point 2), -20%; in experiment [1] (read-out: % Inhibition mean) it was -19%.
